Laboratory results published in patent US20110046217A1, “USE OF 2,2'-CYCLOLIGNANS FOR INDUCING, RESTORING OR STIMULATING THE PIGMENTATION OF THE SKIN, HAIR OR HAIRS” (priority 2007, published 2011).
Values joined by “and” are separate entries in the source; they are usually repeats but may differ in a detail not shown here. Equal values may be shown once.

Legend:
B16 melanocytes [1] = test: Melanin assay, synthesis of melanin by B16 melanocytes; assay type: cell-based; details: for melanin production in the melanocyte cultures: treated at non-toxic doses
Method: The melanogenesis-stimulating effect of gomisin A was measured on B16 melanocyte cultures.
For gomisin A, the following were determined: • after culturing for 10 days under standard conditions, in 24-well plates, in Promocell medium free of “phorbol myristate acetate” (PMA):
the amount of melanin present in the cultures, by spectrophotometric measurement of the melanin produced, after alkaline extraction, relative to 100% of the control (the control corresponds to the test performed without test compound).
The melanogenesis-stimulating effect of gomisin C was measured on B16 melanocyte cultures.
For gomisin C, the following were determined: • after culturing for 10 days under standard conditions, in 24-well plates, in Promocell medium free of “phorbol myristate acetate” (PMA): […]

follicle (hair bulb) = test: Pigmentation and survival of the hair follicle
[2] = tested on: Caucasian primary melanocytes; test: Melanin produced in normal human melanocytes; assay type: cell-based; details: 30 μM, 4 days, in the presence of L-dopa (50 μM), vs control
Method: The study was carried out on Caucasian primary melanocytes during culturing. The test and reference formulations were applied in the presence of L-dopa which is the substrate of tyrosinase (50 μM) (Sigma, D9628-5G) for 4 days, the culture medium having been renewed after 2 days. The product GPN000715 was applied at three different concentrations: 10 μM, 30 μM and 80 μM. An application of 100 nM of the reference element (MSH) was carried out, and also an application of 0.1 mM of arbutin. The untreated control cells (CTL) stayed in the culture medium.
The melanocytes were seeded in 6-well plates at a cell density of +/−100 000 cells. One week after seeding the cells, the test and reference products were applied, in the presence of L-dopa. After 4 days of treatment, cell lysis was carried out using a solution of NaOH (1N) (Merck, 109956) over 24 hours, at 37° C. The cell lysates were then centrifuged for 10 minutes, then 120 μl of each lysate was transferred into a 96-well plate in order to read the absorbance at 450 nm. The melanin content of each sample was quantified by comparison with the absorbances from the standard curve made with synthetic melanin (Sigma, M8631-100MG), ranging from 0 to 100 μg/ml.
FIG. 1 represents a quantification of the production of melanin by melanocytes, in a single layer, after 4 days of application in the presence of the test and reference elements. […]

keratinocytes = test: Phagocytic activity of the keratinocytes; assay type: cell-based
melanocyte = test: Formation of a dense dendritic network in the melanocyte; assay type: cell-based
B16 melanocytes [3] = test: MTT test and morphological observations, viability of B16 melanocytes; assay type: cell-based; details: for MTT (%): Table 2, plate 1; for MTT test, average / MTT test, single reading / viability (%): 72 h contact; for % cell viability: Table 4

Compound: COc1cc2c(c(OC)c1OC)-c1c(cc3c(c1OC)OCO3)C[C@H](C)[C@](C)(O)C2 [Gomisin A, gomisin A]
- Melanin (B16 melanocytes [1]; Table 2, plate 1, 0.0022 mg/ml): 16.62 µg/mL
- Melanin % Control (B16 melanocytes [1]; Table 2, plate 1, 0.0022 mg/ml): 121%
- Melanin (B16 melanocytes [1]; Table 2, plate 1, 0.0067 mg/ml): 22.66 µg/mL
- Melanin % Control (B16 melanocytes [1]; Table 2, plate 1, 0.0067 mg/ml): 164%
- Melanin (B16 melanocytes [1]; Table 2, plate 1, 0.02 mg/ml): 27.73 µg/mL
- Melanin % Control (B16 melanocytes [1]; Table 2, plate 1, 0.02 mg/ml): 201%
- melanin production in the melanocyte cultures (B16 melanocytes [1]): significant increase in melanin production
- degeneration and survival of the follicle (follicle (hair bulb)): limits degeneration and increases the survival of the follicle
- pigmentation of the follicle (hair bulb) (follicle (hair bulb)): substantially stimulates the pigmentation of the follicle
- increase of the amount of melanin in normal human melanocytes [2]: ~40%
- phagocytic activity of the keratinocytes (keratinocytes): stimulating
- formation of a dense dendritic network in the melanocyte (melanocyte): stimulating
- MTT (%) (B16 melanocytes [3]; 0.0022 mg/ml): 102%
- MTT (%) (B16 melanocytes [3]; 0.0067 mg/ml): 99%
- MTT (%) (B16 melanocytes [3]; 0.02 mg/ml): 102%
- MTT test, average (B16 melanocytes [3]; gomisin A 0.002 mg/ml): 2.001
- MTT test, single reading (B16 melanocytes [3]; gomisin A 0.002 mg/ml): 2.022 and 2.112 and 2.077 and 1.920 and 1.933 and 1.942
- viability (%) (B16 melanocytes [3]; gomisin A 0.002 mg/ml): 105%
- MTT test, average (B16 melanocytes [3]; gomisin A 0.007 mg/ml): 2.081
- MTT test, single reading (B16 melanocytes [3]; gomisin A 0.007 mg/ml): 2.046 and 2.137 and 2.227 and 2.061 and 1.966
- viability (%) (B16 melanocytes [3]; gomisin A 0.007 mg/ml): 109%
- MTT test, average (B16 melanocytes [3]; gomisin A 0.02 mg/ml): 2.128
- MTT test, single reading (B16 melanocytes [3]; gomisin A 0.02 mg/ml): 2.227 and 2.046 and 2.241 and 1.988 and 2.085 and 2.182
- viability (%) (B16 melanocytes [3]; gomisin A 0.02 mg/ml): 112%
- MTT test, average (B16 melanocytes [3]; gomisin A 2E−04 mg/ml): 1.850
- MTT test, single reading (B16 melanocytes [3]; gomisin A 2E−04 mg/ml): 1.878 and 1.932 and 1.972 and 1.721 and 1.807 and 1.787
- viability (%) (B16 melanocytes [3]; gomisin A 2E−04 mg/ml): 97%
- MTT test, average (B16 melanocytes [3]; gomisin A 3E−05 mg/ml): 1.835
- MTT test, single reading (B16 melanocytes [3]; gomisin A 3E−05 mg/ml): 1.961 and 1.784 and 1.853 and 1.764 and 1.910 and 1.740
- viability (%) (B16 melanocytes [3]; gomisin A 3E−05 mg/ml): 96%
- MTT test, average (B16 melanocytes [3]; gomisin A 7E−04 mg/ml): 1.974
- MTT test, single reading (B16 melanocytes [3]; gomisin A 7E−04 mg/ml): 1.976 and 1.996 and 2.147 and 1.844 and 1.896 and 1.987
- viability (%) (B16 melanocytes [3]; gomisin A 7E−04 mg/ml): 104%
- MTT test, average (B16 melanocytes [3]; gomisin A 8E−05 mg/ml): 1.886
- MTT test, single reading (B16 melanocytes [3]; gomisin A 8E−05 mg/ml): 1.964 and 1.891 and 1.965 and 1.899 and 1.829 and 1.770
- viability (%) (B16 melanocytes [3]; gomisin A 8E−05 mg/ml): 99%
- MTT test, average (B16 melanocytes [3]; gomisin A 9.1E−06 mg/ml): 1.910
- MTT test, single reading (B16 melanocytes [3]; gomisin A 9.1E−06 mg/ml): 1.837 and 1.963 and 1.930 and 1.951 and 1.879 and 1.901
- viability (%) (B16 melanocytes [3]; gomisin A 9.1E−06 mg/ml): 100%

Compound: COc1cc2c(c(OC)c1OC)-c1c(cc3c(c1OC)OCO3)C[C@H](C)[C@](C)(O)[C@H]2OC(=O)c1ccccc1 [Gomisin C, gomisin C]
- Melanin (B16 melanocytes [1]; Table 4, 0.4 μg/ml): 16.66 µg/mL
- Melanin % Control (B16 melanocytes [1]; Table 4, 0.4 μg/ml): 103%
- Melanin (B16 melanocytes [1]; Table 4, 2 μg/ml): 17.46 µg/mL
- Melanin % Control (B16 melanocytes [1]; Table 4, 2 μg/ml): 108%
- Melanin (B16 melanocytes [1]; Table 4, 8 μg/ml): 19.44 µg/mL
- Melanin % Control (B16 melanocytes [1]; Table 4, 8 μg/ml): 121%
- melanin production in the melanocyte cultures (B16 melanocytes [1]): significant increase in melanin production
- % cell viability (B16 melanocytes [3]; 0.4 μg/ml): 102%
- % cell viability (B16 melanocytes [3]; 2 μg/ml): 97%
- % cell viability (B16 melanocytes [3]; 8 μg/ml): 101%
- MTT test, average (B16 melanocytes [3]; gomisin C 0.0002 %): 2.783
- MTT test, single reading (B16 melanocytes [3]; gomisin C 0.0002 %): 2.786 and 2.783 and 2.780
- viability (%) (B16 melanocytes [3]; gomisin C 0.0002 %): 101%
- MTT test, average (B16 melanocytes [3]; gomisin C 0.0008 %): 2.844
- MTT test, single reading (B16 melanocytes [3]; gomisin C 0.0008 %): 2.834 and 2.824 and 2.873
- viability (%) (B16 melanocytes [3]; gomisin C 0.0008 %): 103%
- MTT test, average (B16 melanocytes [3]; gomisin C 0.004 %): 1.899
- MTT test, single reading (B16 melanocytes [3]; gomisin C 0.004 %): 1.871 and 1.873 and 1.954
- viability (%) (B16 melanocytes [3]; gomisin C 0.004 %): 69%
- MTT test, average (B16 melanocytes [3]; gomisin C 0.02 %): 1.136
- MTT test, single reading (B16 melanocytes [3]; gomisin C 0.02 %): 1.208 and 1.146 and 1.205
- viability (%) (B16 melanocytes [3]; gomisin C 0.02 %): 43%
- MTT test, average (B16 melanocytes [3]; gomisin C 1E−06 %): 2.811
- MTT test, single reading (B16 melanocytes [3]; gomisin C 1E−06 %): 2.793 and 2.813 and 2.827
- viability (%) (B16 melanocytes [3]; gomisin C 1E−06 %): 102%
- MTT test, average (B16 melanocytes [3]; gomisin C 2.56E−07 %): 2.790
- MTT test, single reading (B16 melanocytes [3]; gomisin C 2.56E−07 %): 2.786 and 2.781 and 2.804
- viability (%) (B16 melanocytes [3]; gomisin C 2.56E−07 %): 101%
- MTT test, average (B16 melanocytes [3]; gomisin C 3E−05 %): 2.801
- MTT test, single reading (B16 melanocytes [3]; gomisin C 3E−05 %): 2.789 and 2.795 and 2.818
- viability (%) (B16 melanocytes [3]; gomisin C 3E−05 %): 101%
- MTT test, average (B16 melanocytes [3]; gomisin C 6E−06 %): 2.792
- MTT test, single reading (B16 melanocytes [3]; gomisin C 6E−06 %): 2.778 and 2.796 and 2.801
- viability (%) (B16 melanocytes [3]; gomisin C 6E−06 %): 101%

Compound: CC(C)Cn1c(=O)n(C)c(=O)c2[nH]cnc21 [IBMX, reference compound]
- Melanin (B16 melanocytes [1]; Table 2, plate 1, 200 μM): 173.77 µg/mL
- Melanin % Control (B16 melanocytes [1]; Table 2, plate 1, 200 μM): 1261%
- Melanin (B16 melanocytes [1]; Table 4, 8 μM): 18.88 µg/mL
- Melanin % Control (B16 melanocytes [1]; Table 4, 8 μM): 117%
- Melanin (B16 melanocytes [1]; Table 4, 40 μM): 25.91 µg/mL
- Melanin % Control (B16 melanocytes [1]; Table 4, 40 μM): 161%
- Melanin (B16 melanocytes [1]; Table 4, 200 μM): 90.45 µg/mL
- Melanin % Control (B16 melanocytes [1]; Table 4, 200 μM): 561%
- MTT (%) (B16 melanocytes [3]; 200 μM): 99%
- % cell viability (B16 melanocytes [3]; 8 μM): 96%
- % cell viability (B16 melanocytes [3]; 40 μM): 94%
- % cell viability (B16 melanocytes [3]; 200 μM): 99%
